Results from patent publication US11186603B2, “Heparan sulfate glycomimetic compounds and their pharmaceutical and cosmeceutical uses” (VICTORIA LINK LIMITED, priority 2017, dated 2021).
Values joined by “and” are separate entries in the source; they are usually repeats but may differ in a detail not shown here. Identical values can stand only once. Like-named read-outs stand apart in the source and are kept apart here.

Experiments:
[1] = test system: GM03123 (NPC) fibroblast cell line; assay: NPC cholesterol activity: filipin staining, LSO ratio; type: cell-based, human; details: GM03123 (NPC), 10 μM, 48 hours; LSO ratio treated/untreated x 100
Description: (§1) Fibroblast cell lines derived from Alzheimer and Niemann-Pick Type C (NPC) patients and healthy controls were obtained from the […] (Camden, N.J., USA). Cell line GM03123 was derived from a NPC patient with two heterozygous mutations in the NPC1 gene. Cell line GM09503 was used as a healthy control for the NPC cell line. Cell line ND41001 was derived from a patient carrying a Presenilin 1 mutation with familial (early onset) Alzheimer's disease (AD). Cell line ND38530 was used as a healthy control for the AD cell line. Further details of the cell lines are available at the Cornell Cell Repository website (https://catalog.coriell.org/).
(§2) Cell culture work was carried out in sterile conditions in an Email Air Handling Class II Biological Safety Cabinet (AES Environmental Pty LTD, Australia). All cell lines were cultured in DMEM (10313-021, Life Technologies New Zealand) supplemented with 10% fetal calf serum (Thermo Fisher Scientific New Zealand), 1× GlutaMAX™ Supplement (stabilised L-glutamine, Gibco Life Technologies New Zealand), 100 units/mL penicillin and 100 units/mL streptomycin (Life Technologies New Zealand). Cell lines were maintained in or 75 cm^2 flasks (Corning, Invitro Technologies New Zealand) in a humidified incubator (Sanyo Electric Co. Ltd, Japan) at 37° C. and 5% CO2. Experimental cultures were carried out in the same media omitting the antibiotics to avoid any potential interaction with the compound being tested.
(§3) For experiments, cells were seeded at a density of 1.25×10^3 cells/mL in black, 96 well plates (Cell-carrier, Perkin Elmer, Scimed New Zealand) in a volume of 100 μL media and grown for 24 hours before treating. The media was then replaced with fresh media supplemented with the required treatment. Cell lines GM03123 and ND41001 were either left untreated, or treated with either 10 μM or 100 μM of the heparan sulphate compound dissolved in sterile deionised water (dH20), 10 μM suberoylanilide hydroxamic acid (SAHA) dissolved in DMSO, or 0.1% DMSO. The healthy control cell lines GM09503 and ND38530 were left untreated or treated with U18666A dissolved in sterile dH20 at a final concentration of 1 μg/mL. U18666A causes cholesterol accumulation in the cell and is therefore a positive control for the filipin stain. Cells were then grown for 48 hours.
(§4) Before fixing, cells were washed three times with 1× phosphate buffered saline (PBS). From this point all treatments and washes were undertaken on a rotating table at 45 revs per minute. Cells were fixed with 1.5% paraformaldehyde (PFA) in 1×PBS (Thermo Fisher Scientific New Zealand) for 20 minutes. Cells were then washed with 1×PBS for four minutes. This was repeated twice. The cells were then stained for 2 hours with 50 μg/mL Filipin dye (Filipin complex from Streptomyces filipinensis, Sigma Aldrich, Australia) protected from the light. With minimal light exposure, the cells were washed with 1×PBS for four minutes and this was repeated twice. Cells were left in 1×PBS for confocal microscopy. The filipin stained cells were imaged using a Perkin Elmer Opera™ high-throughput spinning disk confocal microscope using 405 nm laser and 20× water immersion objective. Perkin Elmer Acapella™ software was used for image analysis. In NPC cells cholesterol accumulates in organelles with the characteristics of late endosomes or early lysosomes. These can be described as lysosome-like storage organelles (LSO). Analysis of free cholesterol levels in the cells was carried out using a method designed for high throughput confocal images described by Pipalia et al., Automated microscopy screening for compounds that partially revert cholesterol accumulation in Niemann-Pick C cells, J. Lipid Res., 2006, 47(2): 284-301. A low fluorescence threshold was chosen which identified the total area occupied by cells and another higher threshold was chosen to determine the areas of bright filipin staining of cholesterol within the cell. […]

[2] = test system: ND41001 (AD) fibroblast cell line; assay: as above; type: cell-based, human; details: 10 μM, 48 hours
Description: as §1, §2, §3, §4

[3] = test system: human dermal fibroblast cell line, CRL2071; assay: Production of collagen type I (ELISA); type: cell-based
Protocol: (§5) Cells from the human dermal fibroblast cell line, CRL2071 (passages 12-14), obtained from normal breast skin of a person, were allowed to attach for 6-8 hours before the addition of the test compounds. After 72 h of exposure to the test articles the media was removed, cells counted and the cell-associated fraction extracted. The media and cell-associated fraction were analysed for the concentration of collagen type I using a Chondrex Human type I Collagen Detection Kit ELISA (Cat #6021).
After complete dissolution the solutions were sterile filtered through a […] syringe filter and kept at 4° C. until use. Prior to each experiment dilutions were freshly prepared by diluting to 100 nM, 1 μM or 10 μM in cell-specific media.
(§6) The test compounds, positive controls and no treatment media were added to the flasks (2.5 ml/flask) and cells were incubated for 72 h before removal of the supernatant. After removal of the supernatant, cell monolayers were trypsinsed with 2.5 ml of 0.025% trypsin/[…] in PBS to each flask. After cell detachment (7-10 min), 1 ml of the cell/trypsin mixture was added to a 20 ml counting vial containing 9 ml of normal saline. The cells were quantitated with a Coulter Counter Z2.
(§7) In some treatments cells were found floating. They were collected, counted and subjected to viability testing using 1% trypan blue staining. The remaining 1.5 ml of trypsin/cell mixture was sonicated with a Branson tip-probed sonicator for 1 min, setting 6 before centrifugation at 10,000 rpm for 10 min. The supernatant was removed and used in the collagen ELISA for the quantitation of cell-associated collagen.

testicular hyaluronidase = assay: Inhibition of hyaluronidase (turbidimetric); type: biochemical
Protocol: The heparanase inhibitors were incubated with testicular hyaluronidase in the presence of hyaluronan and after incubation the amount of hyaluronic acid remaining was quantitated. Hyaluronidase activity was measured according to the method of Tolksdorf [Tolksdorf, S. & McCready, M. H., The turbometric determination of hyaluronidase, The Journal of Laboratory and Clinical Medicine, 1949, 34(1):74-89]. Hyaluronic acid is measured by its ability to form turbidity with an acid albumin solution. […] One unit is based on the change in absorbency (turbidity) at 540 nm of an internal USP standard. All tubes were placed in a boiling water bath for 5 min and then cooled to room temperature. On cooling 9.0 ml of albumin reagent was added and tubes were allowed to stand for 10 min. Readings of absorbance at 540 nm in a Pharmacia Novatec Model II were taken. The A540nm was plotted versus the hyaluronic acid concentration (mg) to form a standard curve.

[4] = biological target: T1, cellular tyrosinase, human primary epidermal melanocyte cell line (PCS-200-013) (Homo sapiens, UniProt P14679)
T1 sequence (P14679 19-529): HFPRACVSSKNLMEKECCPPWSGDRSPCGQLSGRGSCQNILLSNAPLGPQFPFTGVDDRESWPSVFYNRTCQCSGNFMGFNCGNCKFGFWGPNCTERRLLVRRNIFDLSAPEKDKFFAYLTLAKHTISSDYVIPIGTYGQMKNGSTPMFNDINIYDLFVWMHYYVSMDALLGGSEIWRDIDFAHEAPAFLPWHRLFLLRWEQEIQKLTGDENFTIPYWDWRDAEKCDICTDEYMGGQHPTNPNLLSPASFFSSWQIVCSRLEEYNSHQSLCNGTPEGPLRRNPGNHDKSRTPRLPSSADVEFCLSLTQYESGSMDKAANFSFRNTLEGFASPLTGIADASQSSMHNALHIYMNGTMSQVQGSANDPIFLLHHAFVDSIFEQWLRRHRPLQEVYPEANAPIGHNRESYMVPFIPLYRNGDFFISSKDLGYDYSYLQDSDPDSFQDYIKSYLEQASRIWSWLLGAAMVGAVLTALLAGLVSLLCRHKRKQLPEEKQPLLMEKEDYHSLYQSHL

[5] = test system: human dermal fibroblast cell line, CRL2071; assay: Production of hyaluronan (ELISA); type: cell-based; details: 72 h; for ng Hyaluronan/1 × 10^6 cells (Mean ± SD): liberated hyaluronan (>6400Da); for Hyaluronan as % of No Treatment Control (Mean ± SD): liberated
Protocol: as §5, with “hyaluronan” for “collagen type I”, “Hyaluronan” for “Chondrex Human type I Collagen”, “ELISA.” for “ELISA (Cat #6021).”
as §6
as §7, with “hyaluronan” for “collagen”, “hyaluronan.” for “collagen.”

[6] = cell-associated, 20 ng/ml, 72 h
[7] = cell-associated, 10 μg/ml, 72 h

## O=C(CCCCCCC(=O)Nc1ccccc1)NO [SAHA, suberoylanilide hydroxamic acid, reference compound]
[1]
  LSO %: 43.0%
[2]
  LSO %: 42.4%

## O=C(CCCCCCCNC(=O)CCOCC(COCCC(=O)NCCCCCCCC(=O)NCCCCCCOC1OC(COS(=O)(=O)[O-])C(OS(=O)(=O)[O-])C(OS(=O)(=O)[O-])C1OS(=O)(=O)[O-])(COCCC(=O)NCCCCCCCC(=O)NCCCCCCOC1OC(COS(=O)(=O)[O-])C(OS(=O)(=O)[O-])C(OS(=O)(=O)[O-])C1OS(=O)(=O)[O-])COCCC(=O)NCCCCCCCC(=O)NCCCCCCOC1OC(COS(=O)(=O)[O-])C(OS(=O)(=O)[O-])C(OS(=O)(=O)[O-])C1OS(=O)(=O)[O-])NCCCCCCOC1OC(COS(=O)(=O)[O-])C(OS(=O)(=O)[O-])C(OS(=O)(=O)[O-])C1OS(=O)(=O)[O-].[Na+].[Na+].[Na+].[Na+].[Na+].[Na+].[Na+].[Na+].[Na+].[Na+].[Na+].[Na+].[Na+].[Na+].[Na+].[Na+] (centres unmarked) [Compound 17d]
[3]
  Collagen as % of No Treatment Control (Mean ± SD), Cell-associated: 3,076 ± 803% and 5,116 ± 231%
  μg collagen (Mean ± SD), Cell-Associated Collagen Type 1: 1.32 ± 0.35 µg and 2.20 ± 0.10 µg
Testicular hyaluronidase; 100 nM
  Hyaluronidase inhibition as a % of the "No Treatment" control (Mean ± SD): 0 ± 0%
Testicular hyaluronidase; 1 μM
  Hyaluronidase inhibition as a % of the "No Treatment" control (Mean ± SD): 0 ± 0%
Testicular hyaluronidase; 10 μM
  Hyaluronidase inhibition as a % of the "No Treatment" control (Mean ± SD): 23 ± 1%
Testicular hyaluronidase; summary of Example 11
  inhibition of testicular hyaluronidase (in words): effective inhibitors of testicular hyaluronidase
[4]
  inhibitory effect on tyrosinase activity (in words): significant inhibitory effect on tyrosinase activity
[4]; 0.1 µM
  Tyrosinase inhibition as a % of the "No Treatment" control (Mean ± SD): 0 ± 0%
[4]; 1 μM
  Tyrosinase inhibition as a % of the "No Treatment" control (Mean ± SD): 0 ± 0%
[4]; 10 μM
  Tyrosinase inhibition as a % of the "No Treatment" control (Mean ± SD): 44 ± 2%

## CC1=C(/C=C/C(C)=C/C=C/C(C)=C/CO)C(C)(C)CCC1 [Retinol, reference compound]
[5]; 5 μg/ml
  ng Hyaluronan/1 × 10^6 cells (Mean ± SD): 576 ± 0 ng Hyaluronan/1 × 10^6 cells
  Hyaluronan as % of No Treatment Control (Mean ± SD): 1,346 ± 0%

## TGF-β1: Transforming growth Factor β1, Sigma Aldrich, positive control
[3]; [6]
  Collagen as % of No Treatment Control (Mean ± SD), Cell-associated: 719 ± 57%
  μg collagen (Mean ± SD), Cell-Associated Collagen Type 1: 0.31 ± 0.02 µg
[3]; 20 ng/ml, 72 h
  Collagen as % of No Treatment Control (Mean ± SD), Liberated: 2,852 ± 285%
  μg collagen (Mean ± SD), Liberated Collagen Type 1: 1.23 ± 0.12 µg
[5]; 20 ng/ml
  ng Hyaluronan/1 × 10^6 cells (Mean ± SD): 507 ± 68 ng Hyaluronan/1 × 10^6 cells
  Hyaluronan as % of No Treatment Control (Mean ± SD): 1,186 ± 159%

## C=C[C@@](C)(/C=C/c1ccc(O)cc1)CCC=C(C)C [Bakuchiol, reference compound]
[3]; cell-associated, 5 μg/ml, 72 h
  Collagen as % of No Treatment Control (Mean ± SD), Cell-associated: 1,085 ± 60%
  μg collagen (Mean ± SD), Cell-Associated Collagen Type 1: 0.28 ± 0.02 µg
[3]; [7]
  Collagen as % of No Treatment Control (Mean ± SD), Cell-associated: 600 ± 348%
  μg collagen (Mean ± SD), Cell-Associated Collagen Type 1: 0.29 ± 0.01 µg
[3]; 5 μg/ml, 72 h
  Collagen as % of No Treatment Control (Mean ± SD), Liberated: 43 ± 17%
  μg collagen (Mean ± SD), Liberated Collagen Type 1: 0.02 ± 0.01 µg
[3]; 10 μg/ml, 72 h
  Collagen as % of No Treatment Control (Mean ± SD), Liberated: 357 ± 20%
  μg collagen (Mean ± SD), Liberated Collagen Type 1: 0.15 ± 0.01 µg

B1: TGF-β2: Transforming growth Factor β2, Sigma Aldrich, positive control (protein, UniProt P61812 303-414, looked up)
Transforming growth factor …: ALDAAYCFRNVQDNCCLRPLYIDFKRDLGWKWIHEPKGYNANFCAGACPYLWSSDTQHSRVLSLYNTINPEASASPCCVSQDLEPLTILYYIGKTPKIEQLSNMIVKSCKCS
[3]; [6]
  Collagen as % of No Treatment Control (Mean ± SD), Cell-associated: 77 ± 9%
  μg collagen (Mean ± SD), Cell-Associated Collagen Type 1: 0.03 ± 0.00 µg
[3]; 20 ng/ml, 72 h
  Collagen as % of No Treatment Control (Mean ± SD), Liberated: 446 ± 73%
  μg collagen (Mean ± SD), Liberated Collagen Type 1: 0.19 ± 0.03 µg
